In US9512140B2, “(Thieno[2,3-b][1,5]benzoxazepin-4-yl)piperazin-1-yl compounds as dual activity H1 inverse agonists/5-HT2A antagonists” (priority 2011, dated 2016):
Where a name gives a salt, the structure may show the parent alone.

Legend:
[1] = test system: Rats; experiment: Sleep and behavioral monitoring in rats (EEG, EMG, motion); assay type: in vivo
Method: The compound of the present invention is tested in rats for its ability to increase the amount of sleep or decrease sleep interruption or both without undesired effects such as inhibition of REM sleep, waking motor impairment, and/or rebound insomnia. Test animals are continuously monitored by electro-encephalograms (EEG), electromyograms (EMG), and motion to measure cumulative nonREM sleep, cumulative total sleep, average sleep bout duration, longest sleep bout duration, rebound insomnia. REM sleep inhibition and locomotor activity intensity during wakefulness. Methods for such studies are known in the art (see for example methods described in Edgar D M, Seidel W F. Modafinil induces wakefulness without intensifying motor activity or subsequent rebound hypersomnolence in the rat. J Pharmacology & Experimental Therapeutics 1997; 283: 757-769; van Gelder R N, Edgar D M, Dement W C. Real-time automated sleep scoring: validation of a microcomputer-based system for mice. Sleep 1991, 14: 48-55; and Gross B A, Walsh C M, Turakhia A A, Booth V, Mashour G A, Poe G R. Open-source logic-based automated sleep scoring software using electrophysiological recordings in rats. J Neurosci Methods. 2009; 184(1):10-8.) Studies are conducted as follows:
Adult, male Wistar rats (approximately 270-300 g at time of surgery) are surgically fitted for chronic recording of EEG, EMG, and motion as follows: Rats are surgically prepared with a cranial implant consisting of four stainless steel screws for EEG recording (two frontal [3.9 mm anterior from bregma, and ±2.0 mm mediolaterally] and two occipital [6.4 mm posterior from bregma, ±5.5 mm mediolaterally]), and with two Teflon-coated stainless steel wires for EMG recording (positioned under the nuchal trapezoid muscles). All leads are soldered to a miniature connector (Microtech, Boothwyn, Pa.) prior to surgery. The implant assembly is affixed to the skull by the combination of the stainless steel EEG recording screws, cyanoacrylate applied between the implant connector and skull, and dental acrylic. Locomotor activity is monitored via a miniature transmitter (Minimitter PDT4000G, Philips Respironics, Bend, Oreg.) surgically placed into the abdomen. At least 3 weeks are allowed for recovery.
Each rat is housed individually within a microisolator cage modified with an inserted polycarbonate filter-top riser to allow more vertical headroom. A flexible cable that minimally restricts movement is connected at one end to a commutator afixed to the cage top and at the other end to the animal's cranial implant. Each cage is located within separate, ventilated compartments of a stainless steel sleep-wake recording chamber. Food and water are available ad libitum and the ambient temperature is maintained at about 23±1° C. A 24-hr light-dark cycle (LD 12:12) using fluorescent light is maintained throughout the study. Relative humidity averages approximately 50%. Animals are undisturbed for at least 30 hrs before and after each treatment.
The vehicle (placebo, methylcellulose 15 centipoise 0.25% in water) or one of the test compound dose levels is administered orally at 1 mL/kg pseudo-randomly such that no rat receives the same treatment twice, and no rat receives more than two of the 8 treatments in any one study. Each rat is removed from its cage for about a minute to be weighed and treated. At least 6 days “washout” period precede and follow each treatment. […]

[2] = biological target: T1, recombinant 5-HT2C receptor (human) (Homo sapiens, UniProt P28335); experiment: 5-HT2C competition binding assay ([125I]-DOI, SPA)
T1 construct: expressed in transfected cells; host or cells: AV-12 (membranes)
T1 sequence (P28335 33-458): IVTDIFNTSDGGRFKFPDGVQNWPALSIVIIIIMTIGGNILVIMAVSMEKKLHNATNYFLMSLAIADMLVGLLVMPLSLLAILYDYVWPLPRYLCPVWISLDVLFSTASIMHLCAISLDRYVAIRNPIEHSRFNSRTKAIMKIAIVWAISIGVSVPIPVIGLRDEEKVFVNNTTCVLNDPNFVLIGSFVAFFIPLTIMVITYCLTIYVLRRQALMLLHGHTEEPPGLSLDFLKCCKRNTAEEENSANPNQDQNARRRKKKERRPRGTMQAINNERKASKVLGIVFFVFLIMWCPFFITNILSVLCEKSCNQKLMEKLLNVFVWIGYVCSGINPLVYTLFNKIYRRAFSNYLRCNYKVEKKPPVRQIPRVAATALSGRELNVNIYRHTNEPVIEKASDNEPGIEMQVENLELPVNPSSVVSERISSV
Method: [^125I]-(±)DOI binding experiments are carried out in SPA 96-well format. Membranes used in this assay are prepared from AV-12 cells stably expressing recombinant 5-HT2C receptor (human). The incubation is initiated by the addition of a mixture of WGA PVT SPA beads (0.5 mg/well, Perkin Elmer (MA, USA), RPNQ0001) and 2.5 μg membranes to assay buffer (50 mM Tris-HCl, 10 mM MgCl2, 0.5 mM EDTA, 10 μM pargyline, 0.1% ascorbic acid, pH7.4) containing 0.2 nM [[^125I]-(±)DOI and varying concentrations of the test compound (10 point concentration response curves). Non-specific binding is determined in the presence of 20 μM 1-(1-Naphthyl) piperazine. Samples are incubated for 4 hr. at room temperature (22° C.) and then read in a Microbeta Trilux.
Curves are evaluated using a 4-parameter logistic nonlinear equation to obtain the concentration of competitor causing 50% inhibition of radioligand binding (IC50). Equilibrium dissociation constants (Ki) are calculated according to the equation Ki=IC50/(1+L/Kd), where L equals the concentration of radioligand used in the experiment and Kd equals the equilibrium dissociation constant of the radioligand for the receptor, determined from standard saturation analysis or homologous competition experiments. […]

[3] = biological target: hERG Channel (Homo sapiens, UniProt Q12809); experiment: hERG channel
hERG Channel, sequence (Q12809 whole entry): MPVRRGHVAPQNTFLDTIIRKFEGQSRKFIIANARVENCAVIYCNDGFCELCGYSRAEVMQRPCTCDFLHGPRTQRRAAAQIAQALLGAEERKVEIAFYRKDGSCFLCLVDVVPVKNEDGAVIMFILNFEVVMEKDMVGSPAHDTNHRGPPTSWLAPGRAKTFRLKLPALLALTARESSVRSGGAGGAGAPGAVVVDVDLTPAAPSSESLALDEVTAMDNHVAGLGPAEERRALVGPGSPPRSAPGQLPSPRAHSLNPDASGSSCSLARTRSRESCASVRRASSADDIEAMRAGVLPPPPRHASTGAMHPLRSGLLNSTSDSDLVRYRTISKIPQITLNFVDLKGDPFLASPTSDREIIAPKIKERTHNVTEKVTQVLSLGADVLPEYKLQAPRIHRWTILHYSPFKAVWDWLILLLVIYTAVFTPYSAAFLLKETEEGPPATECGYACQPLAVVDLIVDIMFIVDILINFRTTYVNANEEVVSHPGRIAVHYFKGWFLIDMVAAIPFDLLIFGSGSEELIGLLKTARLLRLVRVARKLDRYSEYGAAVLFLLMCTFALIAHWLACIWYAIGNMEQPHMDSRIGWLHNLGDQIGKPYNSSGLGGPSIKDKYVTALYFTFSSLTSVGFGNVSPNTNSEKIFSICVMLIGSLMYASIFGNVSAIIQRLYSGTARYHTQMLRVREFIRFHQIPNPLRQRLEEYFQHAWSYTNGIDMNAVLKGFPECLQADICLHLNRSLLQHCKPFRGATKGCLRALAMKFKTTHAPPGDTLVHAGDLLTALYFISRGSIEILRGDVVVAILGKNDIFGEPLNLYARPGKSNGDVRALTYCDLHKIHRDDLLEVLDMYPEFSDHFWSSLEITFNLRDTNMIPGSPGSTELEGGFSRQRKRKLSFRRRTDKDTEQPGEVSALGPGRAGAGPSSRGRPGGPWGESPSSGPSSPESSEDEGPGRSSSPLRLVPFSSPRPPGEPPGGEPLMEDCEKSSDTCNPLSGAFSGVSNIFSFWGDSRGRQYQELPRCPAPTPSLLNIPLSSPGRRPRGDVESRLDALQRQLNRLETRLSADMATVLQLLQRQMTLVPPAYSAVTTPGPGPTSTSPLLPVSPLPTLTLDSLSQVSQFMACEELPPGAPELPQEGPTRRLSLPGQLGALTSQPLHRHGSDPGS
Source text: (§1) Further, the compounds of the invention may be tested in binding assays and functional activity assays by well known methods for other physiologically important receptors such as, but not limited to, the hERO channel, other serotonin receptors (specifically 5-HT1B, 5-HT1D, receptors, lack of agonist activity at 5-HT2B receptors, 5-HT2C, 5-HT5, 5-HT6, and 5-HT7 receptors), dopaminergic receptors (specifically D1, D2, and D3), GABAA receptors, adrenergic receptors and monoamine transporters.

[4] = biological target: Dopamine D1 (Homo sapiens, UniProt P21728); experiment: Dopamine D1 binding
Dopamine D1, sequence (P21728 whole entry): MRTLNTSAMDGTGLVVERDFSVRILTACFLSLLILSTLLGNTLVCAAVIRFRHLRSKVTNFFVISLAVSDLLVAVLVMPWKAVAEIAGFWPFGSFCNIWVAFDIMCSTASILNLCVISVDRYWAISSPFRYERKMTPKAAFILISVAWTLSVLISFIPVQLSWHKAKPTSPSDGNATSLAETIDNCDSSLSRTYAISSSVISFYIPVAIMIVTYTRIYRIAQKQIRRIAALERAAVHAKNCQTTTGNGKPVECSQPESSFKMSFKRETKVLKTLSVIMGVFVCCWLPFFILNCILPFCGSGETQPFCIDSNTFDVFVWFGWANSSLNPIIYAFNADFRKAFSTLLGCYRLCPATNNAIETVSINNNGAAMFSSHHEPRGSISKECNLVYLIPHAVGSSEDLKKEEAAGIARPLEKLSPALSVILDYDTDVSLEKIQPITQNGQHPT
Source text: as §1

[5] = threshold efficacy dose, 4 parameter logistic regression, 6 hr. after treatment, rat PO

## Cc1ccc2c(c1)Oc1sc(C)cc1C(N1CCN(CC(C)(C)C(=O)O)CC1)=N2 [Example 2, 3-[4-(2,8-Dimethylthieno[2,3-b][1,5]benzoxazepin-4-yl)piperazin-1-yl]-2,2-dimethyl-propanoic acid dihydrochloride]
[1]; 0.25 mg/kg and 0.025 mg/kg, rat
  apparent REM sleep inhibition, statistical significance: not statistically significant
[1]; 3 mg/kg, rat
  REM sleep inhibition against the threshold value (−10 min.): exceeded the threshold value
  cumulative NREM sleep time (in words): significantly increase
  cumulative total sleep time (in words): significantly increase
  inhibition of locomotor intensity (LMI) (in words): without significant
  rebound insomnia (in words): without significant rebound insomnia
[1]; rat sleep study
  REM sleep inhibition (overall conclusion, in words): cannot be ruled out
[1]; rat, efficacy dose 0.26 mg/kg
  rebound insomnia or reduction in LMI within 10 times the most conservative efficacy dose: no undesired occurences of REM rebound insomnia, or reduction in LMI are observed
[1]; [5]
  Estimated efficacy dose, NREM accumulation = 30 min.: 0.05 mg/kg
  Estimated efficacy dose, average sleep bout (1.5-fold increase): 0.21 mg/kg
  Estimated efficacy dose, longest sleep bout (1.75-fold increase): 0.26 mg/kg
  Estimated efficacy dose, total sleep accumulation = 25 min.: 0.07 mg/kg
[2]
  Ki: 883 nM
[3]
  hERG Channel: >100 µM
[4]
  Ki: 2350 nM
